Results from ChEMBL document CHEMBL1150544, “C-3-N-acyl analogs of 9(R)-dihydrotaxol: synthesis and structure activity relationships” (Bioorg Med Chem Lett, 1994).
In brackets after ≈: the same amount, converted by molar mass.

What was measured:
A549 = experiment: In vitro cytotoxicity against A549-human lung carcinoma cells.; assay type: functional, cell-based
B16-F10 = experiment: In vitro cytotoxicity against B16F10-mouse melanoma cells.; assay type: functional, cell-based
HT-29 = experiment: In vitro cytotoxicity against HT29-human colon adenocarcinoma cells.; assay type: functional, cell-based
P388 = experiment: In vitro cytotoxicity against P388-mouse leukemia cells.; assay type: functional, cell-based
[1] = Antitumor activity relative to taxol.; assay type: functional

CC(=O)O[C@@H]1C2=C(C)[C@@H](OC(=O)[C@H](O)[C@@H](NC(=O)OCC(C)C)c3ccccc3)C[C@@](O)([C@@H](OC(=O)c3ccccc3)[C@@H]3[C@]4(OC(C)=O)CO[C@@H]4C[C@H](O)[C@@]3(C)[C@H]1O)C2(C)C
IC50 (A549): 0.0043 µg/mL (≈ 0.00505 µM) | IC50 (B16-F10): 0.0069 µg/mL (≈ 0.0081 µM) | IC50 (HT-29): 0.0023 µg/mL (≈ 0.0027 µM) | IC50 (P388): 0.028 µg/mL (≈ 0.0329 µM) | Ratio [1]: 1.03

CC(=O)N[C@@H](c1ccccc1)[C@@H](O)C(=O)O[C@H]1C[C@@]2(O)[C@@H](OC(=O)c3ccccc3)[C@@H]3[C@]4(OC(C)=O)CO[C@@H]4C[C@H](O)[C@@]3(C)[C@@H](O)[C@H](OC(C)=O)C(=C1C)C2(C)C
IC50 (A549): 2.1 µg/mL (≈ 2.65 µM) | IC50 (B16-F10): 1.1 µg/mL (≈ 1.39 µM) | IC50 (HT-29): 0.27 µg/mL (≈ 0.34 µM) | IC50 (P388): 2.02 µg/mL (≈ 2.54 µM) | Ratio [1]: 3.17

CC(=O)O[C@H]1C(=O)[C@@]2(C)[C@H]([C@H](OC(=O)c3ccccc3)[C@]3(O)C[C@H](OC(=O)[C@H](O)[C@@H](NC(=O)c4ccccc4)c4ccccc4)C(C)=C1C3(C)C)[C@]1(OC(C)=O)CO[C@@H]1C[C@@H]2O [PACLITAXEL]
IC50 (B16-F10): 0.0041 µg/mL (≈ 0.0048 µM) | IC50 (HT-29): 0.0024 µg/mL (≈ 0.00281 µM) | IC50 (P388): 0.046 µg/mL (≈ 0.0539 µM)

CCOC(=O)N[C@@H](c1ccccc1)[C@@H](O)C(=O)O[C@H]1C[C@@]2(O)[C@@H](OC(=O)c3ccccc3)[C@@H]3[C@]4(OC(C)=O)CO[C@@H]4C[C@H](O)[C@@]3(C)[C@@H](O)[C@H](OC(C)=O)C(=C1C)C2(C)C
IC50 (A549): 0.0057 µg/mL (≈ 0.00692 µM) | IC50 (B16-F10): 0.018 µg/mL (≈ 0.0218 µM) | IC50 (HT-29): 0.005 µg/mL (≈ 0.00607 µM) | IC50 (P388): 0.043 µg/mL (≈ 0.0522 µM) | Ratio [1]: 0.82

CC(=O)O[C@@H]1C2=C(C)[C@@H](OC(=O)[C@H](O)[C@@H](NC(=O)OCc3ccccc3)c3ccccc3)C[C@@](O)([C@@H](OC(=O)c3ccccc3)[C@@H]3[C@]4(OC(C)=O)CO[C@@H]4C[C@H](O)[C@@]3(C)[C@H]1O)C2(C)C
IC50 (A549): 0.031 µg/mL (≈ 0.035 µM) | IC50 (B16-F10): 0.044 µg/mL (≈ 0.0497 µM) | IC50 (HT-29): 0.012 µg/mL (≈ 0.0135 µM) | IC50 (P388): 0.057 µg/mL (≈ 0.0643 µM)

CC(=O)O[C@@H]1C2=C(C)[C@@H](OC(=O)[C@H](O)[C@@H](NC(=O)OC34CC5CC(CC(C5)C3)C4)c3ccccc3)C[C@@](O)([C@@H](OC(=O)c3ccccc3)[C@@H]3[C@]4(OC(C)=O)CO[C@@H]4C[C@H](O)[C@@]3(C)[C@H]1O)C2(C)C
IC50 (A549): 0.0043 µg/mL (≈ 0.00462 µM) | IC50 (B16-F10): 0.0048 µg/mL (≈ 0.00516 µM) | IC50 (HT-29): 0.0028 µg/mL (≈ 0.00301 µM) | IC50 (P388): 0.01 µg/mL (≈ 0.0108 µM) | Ratio [1]: 1.54

CC(=O)O[C@@H]1C2=C(C)[C@@H](OC(=O)[C@H](O)[C@@H](NC(=O)OC(C)(C)C)c3ccccc3)C[C@@](O)([C@@H](OC(=O)c3ccccc3)[C@@H]3[C@]4(OC(C)=O)CO[C@@H]4C[C@H](O)[C@@]3(C)[C@H]1O)C2(C)C
IC50 (A549): 0.0003 µg/mL (≈ 0.000352 µM) | Ratio [1]: 0.87

CC(=O)O[C@@H]1C2=C(C)[C@@H](OC(=O)[C@H](O)[C@@H](NC(=O)NC(C)(C)C)c3ccccc3)C[C@@](O)([C@@H](OC(=O)c3ccccc3)[C@@H]3[C@]4(OC(C)=O)CO[C@@H]4C[C@H](O)[C@@]3(C)[C@H]1O)C2(C)C
IC50 (A549): 0.014 µg/mL (≈ 0.0165 µM) | IC50 (B16-F10): 0.0046 µg/mL (≈ 0.00541 µM) | IC50 (HT-29): 0.0056 µg/mL (≈ 0.00658 µM) | IC50 (P388): 0.017 µg/mL (≈ 0.02 µM) | Ratio [1]: 1.06

CC(=O)O[C@@H]1C2=C(C)[C@@H](OC(=O)[C@H](O)[C@@H](NC(=O)c3ccc(OCc4ccccc4)cc3)c3ccccc3)C[C@@](O)([C@@H](OC(=O)c3ccccc3)[C@@H]3[C@]4(OC(C)=O)CO[C@@H]4C[C@H](O)[C@@]3(C)[C@H]1O)C2(C)C
IC50 (A549): 0.019 µg/mL (≈ 0.0197 µM) | IC50 (B16-F10): 0.025 µg/mL (≈ 0.026 µM) | IC50 (HT-29): 0.008 µg/mL (≈ 0.00832 µM) | IC50 (P388): 0.053 µg/mL (≈ 0.0551 µM) | Ratio [1]: 0.76

CC(=O)O[C@@H]1C2=C(C)[C@@H](OC(=O)[C@H](O)[C@@H](NC(=O)c3ccco3)c3ccccc3)C[C@@](O)([C@@H](OC(=O)c3ccccc3)[C@@H]3[C@]4(OC(C)=O)CO[C@@H]4C[C@H](O)[C@@]3(C)[C@H]1O)C2(C)C
IC50 (A549): 0.0072 µg/mL (≈ 0.00851 µM) | IC50 (B16-F10): 0.012 µg/mL (≈ 0.0142 µM) | IC50 (HT-29): 0.0041 µg/mL (≈ 0.00485 µM) | IC50 (P388): 0.034 µg/mL (≈ 0.0402 µM) | Ratio [1]: 0.73

CC(=O)O[C@@H]1C2=C(C)[C@@H](OC(=O)[C@H](O)[C@@H](NC(=O)c3ccc(C)cc3)c3ccccc3)C[C@@](O)([C@@H](OC(=O)c3ccccc3)[C@@H]3[C@]4(OC(C)=O)CO[C@@H]4C[C@H](O)[C@@]3(C)[C@H]1O)C2(C)C
IC50 (A549): 0.043 µg/mL (≈ 0.0494 µM) | IC50 (B16-F10): 0.025 µg/mL (≈ 0.0287 µM) | IC50 (HT-29): 0.012 µg/mL (≈ 0.0138 µM) | IC50 (P388): 0.063 µg/mL (≈ 0.0724 µM) | Ratio [1]: 0.75

CC(=O)O[C@@H]1C2=C(C)[C@@H](OC(=O)[C@H](O)[C@@H](NC(=O)CC(C)(C)C)c3ccccc3)C[C@@](O)([C@@H](OC(=O)c3ccccc3)[C@@H]3[C@]4(OC(C)=O)CO[C@@H]4C[C@H](O)[C@@]3(C)[C@H]1O)C2(C)C
IC50 (A549): 0.027 µg/mL (≈ 0.0318 µM) | IC50 (B16-F10): 0.0056 µg/mL (≈ 0.00659 µM) | IC50 (HT-29): 0.009 µg/mL (≈ 0.0106 µM) | IC50 (P388): 0.052 µg/mL (≈ 0.0612 µM) | Ratio [1]: 1.03

CCC(C)(C)OC(=O)N[C@@H](c1ccccc1)[C@@H](O)C(=O)O[C@H]1C[C@@]2(O)[C@@H](OC(=O)c3ccccc3)[C@@H]3[C@]4(OC(C)=O)CO[C@@H]4C[C@H](O)[C@@]3(C)[C@@H](O)[C@H](OC(C)=O)C(=C1C)C2(C)C
IC50 (A549): 0.001 µg/mL (≈ 0.00115 µM) | IC50 (B16-F10): 0.0003 µg/mL (≈ 0.000346 µM) | IC50 (HT-29): 0.00067 µg/mL (≈ 0.000774 µM) | IC50 (P388): 0.0046 µg/mL (≈ 0.00531 µM) | Ratio [1]: 0.73

CC(=O)O[C@@H]1C2=C(C)[C@@H](OC(=O)[C@H](O)[C@@H](NC(=O)C(C)(C)C)c3ccccc3)C[C@@](O)([C@@H](OC(=O)c3ccccc3)[C@@H]3[C@]4(OC(C)=O)CO[C@@H]4C[C@H](O)[C@@]3(C)[C@H]1O)C2(C)C
IC50 (A549): 0.11 µg/mL (≈ 0.132 µM) | IC50 (B16-F10): 0.035 µg/mL (≈ 0.0419 µM) | IC50 (HT-29): < 0.01 µg/mL | IC50 (P388): 0.083 µg/mL (≈ 0.0993 µM) | Ratio [1]: 2.36

CC(=O)O[C@@H]1C2=C(C)[C@@H](OC(=O)[C@H](O)[C@@H](NC(=O)OCC(C)(C)C)c3ccccc3)C[C@@](O)([C@@H](OC(=O)c3ccccc3)[C@@H]3[C@]4(OC(C)=O)CO[C@@H]4C[C@H](O)[C@@]3(C)[C@H]1O)C2(C)C
IC50 (A549): 0.00065 µg/mL (≈ 0.000751 µM) | IC50 (B16-F10): 0.0074 µg/mL (≈ 0.00855 µM) | IC50 (HT-29): 0.0015 µg/mL (≈ 0.00173 µM) | IC50 (P388): 0.019 µg/mL (≈ 0.0219 µM) | Ratio [1]: 0.82

CC(=O)O[C@@H]1C2=C(C)[C@@H](OC(=O)[C@H](O)[C@@H](NC(=O)c3ccc(O)cc3)c3ccccc3)C[C@@](O)([C@@H](OC(=O)c3ccccc3)[C@@H]3[C@]4(OC(C)=O)CO[C@@H]4C[C@H](O)[C@@]3(C)[C@H]1O)C2(C)C
IC50 (A549): > 0.1 µg/mL | IC50 (B16-F10): > 0.1 µg/mL | IC50 (HT-29): 0.067 µg/mL (≈ 0.0768 µM) | IC50 (P388): > 0.1 µg/mL | Ratio [1]: 1.07

CC(=O)O[C@@H]1C2=C(C)[C@@H](OC(=O)[C@H](O)[C@@H](NC(=O)OC(C)C)c3ccccc3)C[C@@](O)([C@@H](OC(=O)c3ccccc3)[C@@H]3[C@]4(OC(C)=O)CO[C@@H]4C[C@H](O)[C@@]3(C)[C@H]1O)C2(C)C
IC50 (A549): 0.0012 µg/mL (≈ 0.00143 µM) | IC50 (B16-F10): 0.0022 µg/mL (≈ 0.00263 µM) | IC50 (HT-29): 0.0008 µg/mL (≈ 0.000955 µM) | IC50 (P388): 0.0092 µg/mL (≈ 0.011 µM) | Ratio [1]: 0.75
